These results are taken from PMC11982498 (Redox Biology, 2025).

In one test the target is T1, Aβ1-42 (Homo sapiens, UniProt P05067).
T1 construct: Aβ1-42 was purchased from Gill Biochemicals Ltd (Shanghai, China); purchased Gill Biochemicals Ltd (Shanghai, China)
Nature of the test: Circular dichroism of Aβ1-42 secondary structure. The test is classed as biochemical. To be noted: 20 μM compound, 72 h. The procedure:
The circular dichroism (CD) experiment was performed to investigate the effect of B14 (20 μM) or Curcumin (20 μM) on the change of Aβ1-42 secondary structure. The Aβ1-42 solutions (100 μM) were co-incubated with B14 (20 μM) or Curcumin (20 μM) at 37 °C for 72h. Ellipticity changes of Aβ1-42 were monitored employing a Chirascan CD spectropolarimeter (Chirascan, England).
Circular dichroism (CD) experiment was performed to investigate the effect of B14 (20 μM) and Curcumin (20 μM) on the change of Aβ1-42 secondary structure. The Aβ1-42 solutions (100 μM) were co-incubated with B14 (20 μM) and Curcumin (20 μM) at 37 °C for 72h. Ellipticity changes of Aβ1-42 were monitored employing a Chirascan CD spectropolarimeter (Applied Photophysics, UK).
A general note: CD spectra are sensitive to the conformation of chiral molecules.

For test [1], the system named is bio-HRAS (DNA, i motif) CGCCCGTGCCCTGCGCCCGCAACCCGA
Nature of the test: SPR. To be noted: K+ 100 mM; 20 mM MES, pH 5.5, 25 °C.

Test [2] deals with APP/PS1 transgenic mice. Briefly: Elevated plus maze (EPM). The test is classed as in vivo. To be noted: B14 10, 20, 40 mg/kg i.p. every other day. An excerpt:
(§1) Five months old male APP/PS1 mice, weighing 25–33 g, were purchased from Guangdong Medical Laboratory Animal Center and housed in the Laboratory Animal Center of Sun Yat-sen University (Guangzhou, China) for experimentation. All procedures were approved by the Animal Care and Use Committee of Sun Yat-sen University and complied with legal requirements and national guidelines for the care and maintenance of laboratory animals (Approval No. SYSU-IACUC-2024-002032). The mice were housed in a specific pathogen-free environment with a controlled temperature of 22 ± 1 °C and a 12-h dark/light cycle. The mice were fed with a standard diet, and 30 mice were randomly divided into 6 groups (N = 5). Compound B14 was dissolved in saline and administered at doses of 10, 20, or 40 mg/kg. APP/PS1 male mice were grown until 6 months of age, and then injected intraperitoneally with compound B14 every other day for 60 days. Behavioral experiments were then conducted, and tissue specimens were collected for biochemical analysis.
The spatial memory and learning abilities of the mice were assessed using Morris water maze (MWM), novel object recognition (NOR) and nesting experiments (NBT). The anxiety and depressive behaviors were evaluated through the open field test (OFT) and elevated plus maze (EPM). Detailed experimental procedures are provided in the supplementary information. […]

The subject of test [3] is BCL-2(G4) (DNA, G4) AGGGGCGGGCGCGGGAGGAAGGGGGCGGGAGCGGGGCTG
Nature of the test: CD melting, 260 nm. The conditions noted are these: K+ 100 mM; Figure S6 legend says Na+ 20 mM; Tris-HCl, pH 7.4; 20 μM B14, 2 μM DNA.

Another test relates to BCL-2 promoter i-motif. Nature of the test: CD melting experiment, BCL-2 i-motif. It is filed as binding. To be noted: BPES buffer pH 5.5; 20 equivalents (20 μM) compound. The procedure:
CD-melting experiment was carried out following a published method without significant modification. BCL-2 promoter i-motif and G-quadruplex structures at a concentration of 5 μM were annealed in buffer at 95 °C for 10 min, and then cooled to room temperature. The annealed samples were incubated with B14 for 6 h, and then molar ellipticity at 287 nm for i-motif structure or 260 nm for G-quadruplex structure, where the CD value was the highest in our experiment, was measured over a temperature range of 20–90 °C at a heating rate of 0.5 °C/min. Tm values were determined and calculated through nonlinear regression curve fitting with software GraphPad Prism 9.0. (GraphPad Software Inc., California, USA).
Figure S6. CD melting experiments were performed to examine the effects of B14 and A22 on BCL-2 promoter i-motif and G-quadruplex. (A-H) CD melting experiments were performed for BCL-2 promoter i-motif or G-quadruplex in the absence or presence of B14 (2, 5, 20 equivalents) and A22 (20 equivalents). The oligonucleotide for BCL-2 i-motif was annealed in 1 X BPES buffer at pH 5.5, while the oligonucleotide for BCL-2 G-quadruplex was annealed in 20 mM Tris-HCl buffer with 20 mM NaCl at pH 7.4. The ΔTm values for the effects of B14 and A22 on BCL-2 promoter i-motif were determined to be 11.26 °C and 11.82 °C, respectively. […]

Test [4] relates to APP/PS1 transgenic mice. Briefly: Morris water maze (MWM). It is filed as in vivo. To be noted: B14 10, 20, 40 mg/kg i.p. every other day; vs model group.
Description: as §1, with “APP/PS1 male mice were grown until 6 months of age, and then injected intraperitoneally with compound B14 every other day for 60 days. Behavioral experiments were then conducted, and tissue specimens were collected for biochemical analysis.” left out
The spatial memory and learning abilities of the mice were assessed using Morris water maze (MWM), novel object recognition (NOR) and nesting experiments (NBT). The anxiety and depressive behaviors were evaluated through the open field test (OFT) and elevated plus maze (EPM). […]
Morris water maze (MWM) system consisted of a heated circular pool, a target platform, and a video capture with analysis system. […] The time taken to find the platform (latency) was recorded. […] The platform was removed, and the mice were monitored for 60 seconds. […]

In general, KD refers to the constant that tells how readily two partners part at equilibrium. Lower therefore signals tighter binding. The ΔTm is the shift of the melting midpoint relative to a reference.

T1 sequence (P05067 672-713 limits assumed): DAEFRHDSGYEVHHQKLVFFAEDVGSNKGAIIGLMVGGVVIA

Consider `O=C(CCN1CCOCC1)Nc1ccc2c(c1)c(=O)c1cc(NC(=O)CCN3CCOCC3)ccc1n2-c1ccc2occc2c1` [Compound B14], for which, at Aβ1-42, the “CD signal intensity of Aβ1-42” value is recorded as “much decreased”. For the same molecule, the KD in test [1] was > 50 µM. In the test with APP/PS1 transgenic mice [2], the “number of entries into the open arm and retention time (EPM)” value was “significantly increased”. In addition, the ΔTm in test [3] was -3.13 °C. Also, in the test on BCL-2 promoter i-motif, the “ΔTm (CD melting)” value was found to be 11.26 °C. For the same molecule, in the test on APP/PS1 transgenic mice [4], the “escape latency (MWM)” value was “significantly short” and the “number for the mice to cross the platform (MWM)” value is recorded as “significantly increased”.
